Laboratory results as given in the NIST ThermoML archive (doi:10.1021/je200646r).
± gives the expanded uncertainty stated by the source.

What was measured:
[1] = refractive index (Na D-line) (dimensionless); details: 293.15 K; 101.33 kPa; Liquid; Standard Abbe refractometry
[2] = 293.15 K; 101.33 kPa; Liquid; Vibrating tube method

CCCCCCCCCCCC [dodecane]
refractive index [1]: 1.42155 ± 0.00045
mass density [2]: 749.6 ± 0.31 kg/m3

CCO [ethanol]
refractive index [1]: 1.36162 ± 0.0004
mass density [2]: 792.05 ± 0.15 kg/m3

CO [methanol]
refractive index [1]: 1.32862 ± 0.0004
mass density [2]: 791.46 ± 0.15 kg/m3

CC(C)O [propan-2-ol]
refractive index [1]: 1.37709 ± 0.0004
mass density [2]: 785.46 ± 0.15 kg/m3
